The source of these data is PubChem BioAssay (NCI).

Structures are written as SMILES. “And” between values parts separate entries of the source, which are not always exact repeats. Equal values may be shown once.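 Each compound was tested at five concentrations against cells in 96-well plates for 48 hours. At the GI50, growth is halved. TGI is the concentration that stops growth completely.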 A value given as a limit tells only on which side of the number the result lay.

In general, TGI refers to the concentration giving total growth inhibition. Higher therefore signals lower sensitivity of the cells. One may read the GI50 as the concentration giving 50% growth inhibition.

Among the test systems are A549 NSCLC; HL-60(TB) leukemia; NCI-H23 lung; DU-145 prostate; RPMI-8226 leukemia; HOP-62 NSCLC; SF-295 CNS; MOLT-4 leukemia; PC-3 prostate; MDA-MB-231 breast; EKVX NSCLC; HOP-92 NSCLC.
Holding throughout (experiment): DTP human tumour cell line panel, 48 h

With `COC1OC(CO)C(O)C(OC(=O)c2cc(O)c(O)c(O)c2)C1OC(=O)c1cc(O)c(O)c(O)c1` (stereo not drawn), the TGI in the assay with A549 NSCLC, with HL-60(TB) leukemia, in the assay with NCI-H23 lung, in the assay on DU-145 prostate, in the assay with RPMI-8226 leukemia and in the assay on HOP-62 NSCLC was above 100 µM throughout. In addition, the total growth inhibition concentration (TGI) was 42.1 µM in the assay with SF-295 CNS; above 100 µM in the assay with MOLT-4 leukemia; above 100 µM with PC-3 prostate; above 100 µM in the assay with MDA-MB-231 breast; above 100 µM in the assay on EKVX NSCLC.
Consider `N#CS/C(Cl)=C(/C(Cl)=C(Cl)Cl)[N+](=O)[O-]`, for which the TGI with A549 NSCLC, in the assay on HL-60(TB) leukemia, in the assay on NCI-H23 lung, with DU-145 prostate, in the assay on HOP-62 NSCLC and in the assay on SF-295 CNS was above 100 µM each time. For the same molecule, the TGI in the assay with MOLT-4 leukemia was 64.9 µM; in the assay on PC-3 prostate it was above 100 µM; with MDA-MB-231 breast, above 100 µM; in the assay on EKVX NSCLC, above 100 µM.
`Cc1c2c(n(CCc3ccccc3)c1C)NN=C(C#N)S2(=O)=O`: the TGI with A549 NSCLC, in the assay on NCI-H23 lung, in the assay with DU-145 prostate, in the assay with RPMI-8226 leukemia, in the assay on HOP-62 NSCLC and with MOLT-4 leukemia was above 100 µM in each case. Further, the TGI in the assay with PC-3 prostate, in the assay with MDA-MB-231 breast and in the assay with EKVX NSCLC was above 100 µM each time.
`CC1N(C)C(=O)OC12CCN(CCCC(=O)c1ccc(F)cc1)CC2` (stereo not drawn): the TGI with A549 NSCLC, with HL-60(TB) leukemia, in the assay on NCI-H23 lung, in the assay with DU-145 prostate, with RPMI-8226 leukemia and in the assay with HOP-62 NSCLC was above 100 µM each time. Further, the TGI in the assay on SF-295 CNS, with MOLT-4 leukemia, in the assay with PC-3 prostate and with MDA-MB-231 breast was above 100 µM throughout.
As for `CC1[C@@H](OCc2ccccc2)COC(=O)N1Cc1ccccc1` (stereo partly drawn), the TGI with A549 NSCLC, in the assay with NCI-H23 lung, in the assay on DU-145 prostate, in the assay on RPMI-8226 leukemia, in the assay with HOP-62 NSCLC and in the assay with SF-295 CNS was above 100 µM throughout. The TGI was above 100 µM in the assay with MOLT-4 leukemia; above 100 µM with PC-3 prostate; 92.9 µM with HOP-92 NSCLC; above 100 µM with MDA-MB-231 breast; above 100 µM in the assay with EKVX NSCLC.
With `O=C1CCCc2cc3c(cc21)CCC3C(=O)O` (stereo not drawn), the TGI with A549 NSCLC, in the assay on HL-60(TB) leukemia, in the assay on NCI-H23 lung, in the assay on DU-145 prostate, with RPMI-8226 leukemia and in the assay with HOP-62 NSCLC was above 100 µM each time. For the same molecule, the TGI in the assay on SF-295 CNS, in the assay with MOLT-4 leukemia, in the assay with PC-3 prostate, with MDA-MB-231 breast and in the assay on EKVX NSCLC was above 100 µM throughout.
Turning to `O=[N+]([O-])C(=C(N1CCOCC1)N1CCOCC1)/C(Cl)=C(\Cl)[N+](=O)[O-]`, the TGI with A549 NSCLC was 50.8 µM; with NCI-H23 lung, 9.29 µM; in the assay with DU-145 prostate, 18 µM; with HOP-62 NSCLC it was 29.8 µM; with SF-295 CNS, 36.4 µM; in the assay on MOLT-4 leukemia, above 100 µM. The TGI in the assay on PC-3 prostate came out at 32.6 µM; in the assay with MDA-MB-231 breast it was 10.1 µM; in the assay on EKVX NSCLC, 23.2 µM.
`NC1CC(=O)c2cc(Br)sc21` (stereo not drawn): the TGI with A549 NSCLC, in the assay with HL-60(TB) leukemia, in the assay on DU-145 prostate, in the assay with RPMI-8226 leukemia, with HOP-62 NSCLC and in the assay with MOLT-4 leukemia was above 100 µM in each case. Moreover, the TGI in the assay with PC-3 prostate, in the assay with MDA-MB-231 breast and with EKVX NSCLC was above 100 µM throughout.
Regarding `CN(C)CCO/N=C1/C=C2CC[C@H]3[C@@H]4CC[C@H](O)[C@@]4(C)CC[C@@H]3[C@@]2(C)CC1`, the TGI with A549 NSCLC was above 65.2 µM; with NCI-H23 lung, 33.6 µM; in the assay on DU-145 prostate it was 45.9 µM; in the assay with RPMI-8226 leukemia it was above 74.9 µM; in the assay with HOP-62 NSCLC, above 87.4 µM; in the assay on SF-295 CNS, 32.4 µM. The TGI with MOLT-4 leukemia is above 36.3 µM; with PC-3 prostate it was above 100 µM; with HOP-92 NSCLC, 23 µM; in the assay on MDA-MB-231 breast, 44.4 µM; in the assay on EKVX NSCLC it was 68.6 µM.
Regarding `CC(=O)c1ccc2c(c1)oc(=O)n2CCN1CCCCC1`, the TGI in the assay on HL-60(TB) leukemia, in the assay on NCI-H23 lung, with DU-145 prostate, in the assay with RPMI-8226 leukemia, in the assay with HOP-62 NSCLC and in the assay with SF-295 CNS was above 100 µM in each case. Besides, the TGI in the assay with MOLT-4 leukemia, in the assay on PC-3 prostate, in the assay with MDA-MB-231 breast and in the assay on EKVX NSCLC was above 100 µM throughout.
With `CC(=O)Nc1ccc2c(C)c3c4ccccc4n(C)c3nc2n1`, the TGI with A549 NSCLC amounted to 59.8 µM; in the assay on HL-60(TB) leukemia, 41.2 µM; in the assay on NCI-H23 lung it was 53.4 µM; in the assay with DU-145 prostate it was 90.4 µM; with HOP-62 NSCLC, 94.8 µM; in the assay on SF-295 CNS, 53.4 µM. In addition, the TGI in the assay with MOLT-4 leukemia was 32.1 µM; in the assay with PC-3 prostate, above 100 µM; in the assay on MDA-MB-231 breast, 41.2 µM; with EKVX NSCLC, above 100 µM.
Turning to `Cc1ccccc1N(C)S(=O)(=O)c1ccccc1[N+](=O)[O-]`, the TGI in the assay with A549 NSCLC, with HL-60(TB) leukemia, with NCI-H23 lung, in the assay on DU-145 prostate, with RPMI-8226 leukemia and in the assay with HOP-62 NSCLC was above 100 µM in each case. In addition, the TGI in the assay with SF-295 CNS, in the assay on MOLT-4 leukemia, in the assay with PC-3 prostate, with MDA-MB-231 breast and with EKVX NSCLC was above 100 µM in each case.
Consider `CC1OC(O[C@H]2CC[C@]3(C)[C@H]4CC=C5[C@@H]6[C@@H](C)[C@H](C)CC[C@]6(C(=O)O)CC[C@@]5(C(=O)O)[C@]4(C)CC[C@H]3C2(C)C)C(O)C(O)C1O` (stereo partly drawn), for which the TGI in the assay with HL-60(TB) leukemia, with NCI-H23 lung, with DU-145 prostate, with HOP-62 NSCLC, in the assay with SF-295 CNS and in the assay with MOLT-4 leukemia was above 75 µM in each case. Besides, the concentration for total growth inhibition (TGI) in the assay on PC-3 prostate, in the assay with HOP-92 NSCLC and in the assay with MDA-MB-231 breast was above 75 µM in each case.
Take `CC(C)(C)N1NC1C1NN1C(C)(C)C` (stereo not drawn): the TGI in the assay on A549 NSCLC, in the assay with NCI-H23 lung, in the assay on DU-145 prostate, in the assay on RPMI-8226 leukemia, in the assay on HOP-62 NSCLC and in the assay with SF-295 CNS was above 100 µM each time. Also, the TGI with MOLT-4 leukemia, with PC-3 prostate, in the assay with HOP-92 NSCLC, in the assay on MDA-MB-231 breast and in the assay on EKVX NSCLC was above 100 µM throughout.
`C=C[C@@]1(C)CC(=O)[C@]2(O)[C@@]3(C)[C@@H](OC(C)=O)CCC(C)(C)[C@@H]3[C@H](OC(C)=O)[C@H](OC(C)=O)[C@@]2(C)O1`: the TGI with A549 NSCLC, in the assay on NCI-H23 lung, in the assay with DU-145 prostate, with HOP-62 NSCLC, in the assay with SF-295 CNS and with MOLT-4 leukemia was above 100 µM throughout. For the same molecule, the TGI in the assay with PC-3 prostate, in the assay with HOP-92 NSCLC, in the assay on MDA-MB-231 breast and in the assay with EKVX NSCLC was above 100 µM each time.
In the case of `Cc1cc(Cl)ccc1N=NC(=O)NNc1ccc(Cl)cc1C`, the TGI in the assay with A549 NSCLC was found to be 30.6 µM; in the assay with HL-60(TB) leukemia it was 45.8 µM; with NCI-H23 lung, 29.8 µM; in the assay with DU-145 prostate it was 23.3 µM; in the assay with RPMI-8226 leukemia it was 89.4 µM; in the assay on HOP-62 NSCLC it was 23.9 µM. The TGI in the assay with MOLT-4 leukemia came to 48.9 µM; in the assay with PC-3 prostate it was 22.8 µM; with MDA-MB-231 breast it was 26.6 µM.
Regarding `CC(=O)OC1COC(n2c(N)c(C#N)c(C)c(C#N)c2=S)C(OC(C)=O)C1OC(C)=O` (stereo not drawn), the TGI in the assay on A549 NSCLC, in the assay on HL-60(TB) leukemia, with NCI-H23 lung, in the assay on DU-145 prostate, in the assay on RPMI-8226 leukemia and in the assay on HOP-62 NSCLC was above 100 µM each time. Further, the TGI with SF-295 CNS, in the assay on MOLT-4 leukemia, in the assay with PC-3 prostate and in the assay on MDA-MB-231 breast was above 100 µM in each case. In addition, the GI50 in the assay with HL-60(TB) leukemia is > 100 µM and 36.6 µM; in the assay on DU-145 prostate, above 100 µM; in the assay with MOLT-4 leukemia it was > 100 µM and 43.2 µM.
`CSc1cc(Cl)c(C)cc1S(=O)(=O)NC(=O)NNc1ccc(F)c(Cl)c1`: the TGI in the assay on A549 NSCLC, in the assay with DU-145 prostate, in the assay on HOP-62 NSCLC, in the assay with SF-295 CNS, in the assay with MOLT-4 leukemia and in the assay on PC-3 prostate was above 100 µM each time. Further, the TGI in the assay on MDA-MB-231 breast and in the assay with EKVX NSCLC was above 100 µM each time.
Regarding `Cc1ccc(S(=O)(=O)N2CCCCN(S(=O)(=O)c3ccc(C)cc3)Cc3ccccc3OCCOCCOc3c4cccc3Cc3cccc5c3OCCOCCOc3ccccc3CN(S(=O)(=O)c3ccc(C)cc3)CCCN(S(=O)(=O)c3ccc(C)cc3)Cc3ccccc3OCCOCCOc3c(cccc3C4)Cc3cccc(c3OCCOCCOc3ccccc3C2)C5)cc1`, the TGI in the assay on A549 NSCLC, in the assay on NCI-H23 lung, in the assay with DU-145 prostate, in the assay on RPMI-8226 leukemia, in the assay with HOP-62 NSCLC and with SF-295 CNS was above 100 µM each time. In addition, the TGI in the assay with MOLT-4 leukemia, with PC-3 prostate, in the assay on HOP-92 NSCLC, with MDA-MB-231 breast and in the assay with EKVX NSCLC was above 100 µM in each case.
